*1 amine or outer side, *2 acyl side, *3 side chain or, on linkers, in order; H or OH if unused. Where a SMILES comes first, the peptide text is derived from it. Bridges are numbered along the chain shown (N, C = ends). [ ]: non-standard residue; d: D form. The star is where a group is joined. X5 = O=C(NC(=O)[*:2])C(N[*:1])c1cc(Cl)c(O)c(Cl)c1; X3 = NCCCCN(C(=O)C(N[*:1])c1ccc(O)cc1)C(=O)[*:2]; X4 = NC1=NC(CC(N[*:1])C(=O)[*:2])CN1; Hpg = N[CH](C(=O)O)c1ccc(O)cc1; X2 = CCC(C)CCCC/C=C/C=C/C(=O)*; Cit = NC(=O)NCCC[CH](N)C(=O)O
Experiment: GHS categories as the set defines them, by LD50: 1 up to 5, 2 up to 50, 3 up to 300, 4 up to 2000, 5 above 2000 mg/kg
Settings: rat; in vivo; po

Compound | GHS category
CC(=O)O[C@]1(C(C)=O)CC[C@H]2[C@@H]3C=C(Cl)C4=CC(=O)[C@@H]5C[C@@H]5[C@]4(C)[C@H]3CC[C@@]21C | 5
CCCCCCC(=O)OC1CCC2C3CCC4=CC(=O)CCC4(C)C3CCC12C (stereo unspecified) | 4
NC(=O)Oc1ccccc1C(=O)Oc1ccc(Cl)cc1Cl | 5
CC(C)N1C2CCC1CC(OC(=O)C(CO)c1ccccc1)C2 (stereo unspecified) | 4
O=C(O)c1cc2ccccc2c(N=Nc2cc(Cl)ccc2Cl)c1O | 5
CC/C=C\CC(C)OC(=O)c1ccccc1O (stereo unspecified) | 5
c1coc(CNc2[nH]cnc3ncnc2-3)c1 | 5
COc1ccc(C2c3ccc(OC)cc3CCN2c2ccccc2)cc1 (stereo unspecified) | 4
CCc1ccc(-n2nnnc2CSCCC(=O)N(CC)CC)cc1 | 4
CON=C(C(=O)N[C@@H]1C(=O)N2C(C(=O)OC(C)OC(C)=O)=C(COC(N)=O)CS[C@H]12)c1ccco1 (stereo partly specified) | 5
CC(=O)CCCC(C)CCC=C(C)C (stereo unspecified) | 5
c1ccc([I+]c2ccccc2)cc1 | 4
CNC(=O)c1cc(Cl)cc(C)c1NC(=O)c1cc(Br)nn1-c1ncccc1Cl | 5
CCCCCCCCCCCCCCC(C)c1cc(C)cc(C)c1O (stereo unspecified) | 5
CN(C)c1ccc(C=Nc2ccccc2C(=O)O)cc1 | 4
O=C1CCCCCCCCCCCCCCCO1 | 5
C/C=C(\C)C(=O)OCC/C=C\CC | 5
CCOCC1COC(Cn2cncn2)(c2cc3ccccc3o2)O1 (stereo unspecified) | 4
O=C1CCc2c(cccc2OCCCN2CCC(O)(c3ccccc3)CC2)N1 | 4
CCOC(=O)COc1cc(-c2nn(C)c(OC(F)F)c2Cl)c(F)cc1Cl | 5
CC(C)c1ccccc1OP(=O)(Oc1ccccc1C(C)C)Oc1ccccc1C(C)C | 5

Compound | GHS category
CC(C)=C1CC[C@H](C)C2=C(C1)[C@@H](C)CC2 | 5
CCOC(=O)c1c(N)sc2c1CCN(Cc1ccccc1)C2 | 5
CCC(C)CCCC/C=C/C=C/C(=O)NC(CC(=O)O)C(=O)NC1C(=O)NC(c2ccc(O)cc2)C(=O)N(CCCCN)C(=O)NC(C(C)O)C(=O)NC(c2ccc(O)cc2)C(=O)NC(c2ccc(O)cc2)C(=O)NC(C(C)O)C(=O)NC(CCCNC(N)=O)C(=O)NC(CC2CNC(N)=N2)C(=O)NC(c2ccc(O)cc2)C(=O)NC(CO)C(=O)NC(c2cc(Cl)c(O)c(Cl)c2)C(=O)NC(=O)NC(CC2CNC(N)=N2)C(=O)NC(C)C(=O)NC(c2ccc(O)cc2)C(=O)OC1C (stereo unspecified) (X2-DT[X3]T[Hpg][Hpg]T[Cit][X4][Hpg]S[X5][X4]A[Hpg]; ester 2-C; configuration not given here) | 5
C=CCN(C(C)=O)C(=O)Oc1cccc2c1OC(C)(C)O2 | 4
O=C1COc2cc(C(=O)c3ccc(Cl)cc3)ccc2N1 | 5
Nc1ncnc2c1ncn2[C@@H]1O[C@H](COP(=O)(O)OP(=O)(O)OP(=O)(O)O)[C@@H](O)[C@H]1O | 5
O=C1NCCCN1 | 5
Cc1nc2n(c1/C=N/NC(=O)CN(C)C)CCS2 | 4
CCCCc1ccc2[nH]c(NC(=O)OC)nc2c1 | 2
CS(=O)(=O)c1ccc(O)c(Cl)c1 | 4
NC(=O)NNC(N)=O | 5
COc1ccc(Cl)cc1N/C(=N/C1CCCCC1)c1cccc(C)c1 | 4
CCCc1nc2ncnn2c(N(CC)CC)c1Cc1ccc(-c2ccccc2-c2nn[nH]n2)cc1 | 4
O=C1NC(=O)C(c2ccc(O)cc2)(c2cccs2)N1 (stereo unspecified) | 5
CCN(CC)CCC1=NC(=C2C=CC(=O)C=C2)NO1 | 5
COC(=O)C(F)(F)C(F)(F)C(F)(F)OC(F)=C(F)F | 3
CCOC(=O)c1cn(C2CC2)c2cc(F)c(F)cc2c1=O | 5
O=C1/C(=C2\Nc3ccccc3C2=O)Nc2ccccc21 | 5
CCCCCCCCCCCCCCCCOC(=O)C(CC)CCCC (stereo unspecified) | 5
CCN(CCCCCCOC(=O)c1ccc(OC)c(OC)c1)C1CCc2ccccc2C1 (stereo unspecified) | 5
